Laboratory results: patent US20150352108A1, “AMINO-PYRIMIDINE COMPOUNDS AS INHIBITORS OF TBK1 AND/OR IKK EPSILON” (Alzheimer's Institute of America, priority 2009, published 2015)

Biological target: T1, IKKε (Homo sapiens, UniProt Q14164)
T1 construct: His-tag; made in house; host or cells: Sf9 insect cells
T1 sequence (Q14164 1-716): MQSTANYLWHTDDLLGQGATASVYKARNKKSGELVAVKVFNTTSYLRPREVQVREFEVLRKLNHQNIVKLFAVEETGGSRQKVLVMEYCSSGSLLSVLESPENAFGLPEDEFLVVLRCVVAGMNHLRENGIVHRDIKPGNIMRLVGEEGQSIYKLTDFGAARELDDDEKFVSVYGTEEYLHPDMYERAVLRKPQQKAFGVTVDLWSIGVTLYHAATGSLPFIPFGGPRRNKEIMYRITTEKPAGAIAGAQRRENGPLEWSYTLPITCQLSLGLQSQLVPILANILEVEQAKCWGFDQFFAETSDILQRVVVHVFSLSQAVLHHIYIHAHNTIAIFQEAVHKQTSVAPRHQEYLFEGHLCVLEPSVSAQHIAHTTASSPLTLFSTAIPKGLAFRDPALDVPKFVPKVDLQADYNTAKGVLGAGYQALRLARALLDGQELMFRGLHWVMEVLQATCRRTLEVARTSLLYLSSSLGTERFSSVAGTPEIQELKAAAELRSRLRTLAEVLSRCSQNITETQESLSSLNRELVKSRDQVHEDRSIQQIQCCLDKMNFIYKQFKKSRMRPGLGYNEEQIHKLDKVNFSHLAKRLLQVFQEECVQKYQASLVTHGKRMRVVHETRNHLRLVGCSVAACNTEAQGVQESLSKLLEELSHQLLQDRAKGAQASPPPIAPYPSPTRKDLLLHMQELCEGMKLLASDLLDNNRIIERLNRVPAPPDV
Assay: In-vitro IKKε kinase assay ([γ33]ATP filter-plate)
Type: biochemical
Conditions: text bins; read-out: IC50 for inhibition of the kinase activity of IKKε
Experimental: IKKε enzyme was produced as a His-tag fusion in Sf9 cells and used at a final concentration of […]. TBK1 enzyme was produced as a His-tag fusion in Sf9 cells and used at a final concentration of 0.1 μg/ml. Kinase reactions were carried out in reaction buffer using myelin basic protein (Millipore, Ballerica, Mass.) or casein (Sigma, St. Louis, Mo.) as substrate at an ATP concentration equal to twice the Km,ATP value for each enzyme, corresponding to 32 μM ATP for IKKε and 60 μM ATP for TBK1, in the presence of 0.3 μCi [γ^33]ATP (PerkinElmer, Waltham, Mass.). Final enzyme concentrations were 0.1 or 0.015 μg/ml (IKKε) and 0.1 or 0.02 μg/ml (TBK1), representing “normal” and “sensitized” assay conditions respectively. Test compounds (or DMSO solvent as a control) were added prior to initiation of the reactions. Reactions were terminated after 30-45 minutes by adding 3% phosphoric acid. Terminated reactions were transferred to P-81 cellulose phosphate filterplates (Whatman, Inc., Piscataway, N.J.) and washed with 1% phosphoric acid on a vacuum apparatus. After air drying, scintillant (PerkinElmer, Waltham, Mass.) was added and the plates were read on a PerkinElmer TopCount NXT instrument. Counts were normalized to DMSO controls after background subtraction.

SMILES | IC50 [nM]
COc1ccc(-c2ccnc(Nc3ccc(NC(=O)NCCCO)cc3)n2)cc1C#N [Example 7, 1-(4-{[4-(3-Cyano-4-methoxyphenyl)pyrimidin-2-yl]amino}phenyl)-3-(3-hydroxypropyl)urea] | 50 to 500
COc1ccc(-c2ccnc(Nc3ccc(NC(=O)NC4CCCC4)cc3)n2)cc1C#N [Example 8, 1-(4-{[4-(3-Cyano-4-methoxyphenyl)pyrimidin-2-yl]amino}phenyl)-3-cyclopentylurea] | 50 to 500
COc1ccc(-c2ccnc(Nc3ccc(NC(=O)NCCO)cc3)n2)cc1C#N [Example 9, 1-(4-{[4-(3-Cyano-4-methoxyphenyl)pyrimidin-2-yl]amino}phenyl)-3-(2-hydroxyethyl)urea] | 50 to 500
COc1ccc(-c2ccnc(Nc3ccc(NC(=O)NCCCN)cc3)n2)cc1C#N [Example 10, 1-(3-Aminopropyl)-3-(4-{[4-(3-cyano-4-methoxyphenyl)pyrimidin-2-yl]amino}phenyl) urea] | 50 to 500
CCN1CCN(c2ccc(-c3ccnc(Nc4ccc(N5CCNC(=O)C5)c(OC)c4)n3)cc2C#N)CC1 [Example 36, 2-(4-Ethylpiperazin-1-yl)-5-(2-{[3-methoxy-4-(3-oxopiperazin-1-yl)phenyl]amino}pyrimidin-4-yl)benzonitrile] | 50 to 500
COc1ccc(COc2ccc(-c3ccnc(Nc4ccc(N5CCOCC5)cc4)n3)cc2C#N)cc1 [Example 40, 2-[(4-Methoxybenzyl)oxy]-5-(2-{[4-(morpholin-4-yl)phenyl]amino}pyrimidin-4-yl)benzonitrile] | 50 to 500
N#Cc1cc(-c2ccnc(Nc3ccc(N4CCOCC4)cc3)n2)ccc1NC(=O)NC1CCC(O)CC1 (centres unmarked) [Example 46, 1-[2-cyano-4-(2-{[4-(morpholin-4-yl)phenyl]amino}pyrimidin-4-yl)phenyl]-3-(4-hydroxycyclohexyl) urea] | 50 to 500
N#Cc1cc(Cl)cc(-c2ccnc(Nc3ccc(N4CCOCC4)cc3)n2)c1 [Example 50, 3-Chloro-5-(2-{[4-(morpholin-4-yl)phenyl]amino}pyrimidin-4-yl)benzonitrile] | 5 to 50
COc1ccc(Nc2nccc(-c3cccc(C#N)c3)n2)cc1F [Example 66, 3-{2-[(3-Fluoro-4-methoxyphenyl)amino]pyrimidin-4-yl}benzonitrile] | 50 to 500
CCC(C)(C)C(=O)Nc1ccc(-c2ccnc(Nc3ccc(N4CCOCC4)cc3)n2)cc1C#N [Example 77, N-[2-cyano-4-(2-{[4-(morpholin-4-yl)phenyl]amino}pyrimidin-4-yl)phenyl]-2,2-dimethylbutanamide] | 50 to 500
CN(C)C(=O)Nc1ccc(-c2ccnc(Nc3ccc(N4CCOCC4)cc3)n2)cc1C#N [Example 81, 3-[2-cyano-4-(2-{[4-(morpholin-4-yl)phenyl]amino}pyrimidin-4-yl)phenyl]-1,1-dimethylurea] | 50 to 500
COc1ccc(-c2ccnc(Nc3ccc(N4CCCC4C(=O)N(C)C)c(OC)c3)n2)cc1C#N (centres unmarked) [Example 87] | 5 to 50
N#Cc1cc(-c2ccnc(Nc3ccc(N4CCOCC4)cc3)n2)ccc1NC(=O)NC1CCOCC1 [Example 92, 1-[2-cyano-4-(2-{[4-(morpholin-4-yl)phenyl]amino}pyrimidin-4-yl)phenyl]-3-(tetrahydro-2H-pyran-4-yl)urea] | 5 to 50
N#Cc1cc(-c2ccnc(Nc3ccc(N4CCOCC4)cc3)n2)ccc1NC(=O)C1CCOCC1 [Example 97, N-[2-cyano-4-(2-{[4-(morpholin-4-yl)phenyl]amino}pyrimidin-4-yl)phenyl]tetrahydro-2H-pyran-4-carboxamide] | 50 to 500
N#Cc1cc(-c2ccnc(Nc3ccc(N4CCOCC4)cc3)n2)ccc1Cl [Example 102, 2-Chloro-5-(2-{[4-(morpholin-4-yl)phenyl]amino}pyrimidin-4-yl)benzonitrile] | 5 to 50

Further lines, results first:

IC50 [nM] | SMILES
50 to 500 | CC(C)NC(=O)N1CCC(Oc2ccc(-c3ccnc(Nc4ccc(N5CCOCC5)cc4)n3)cc2C#N)CC1 [Example 37, 4-[2-Cyano-4-(2-{[4-(morpholin-4-yl)phenyl]amino}pyrimidin-4-yl)phenoxy]-N-(propan-2-yl)piperidine-1-carboxamide]
5 to 50 | N#Cc1cc(-c2ccnc(Nc3ccc(N4CCOCC4)cc3)n2)ccc1OCC1CNC1 [Example 39, 2-(azetidin-3-ylmethoxy)-5-(2-{[4-(morpholin-4-yl)phenyl]amino}pyrimidin-4-yl)benzonitrile]
50 to 500 | N#Cc1cc(-c2ccnc(Nc3ccc(N4CCOCC4)cc3)n2)ccc1OCC1CCN(C(=O)C2(N)CC2)CC1 [Example 42, 2-({1-[(1-aminocyclopropyl)carbonyl]piperidin-4-yl}methoxy)-5-(2-{[4-(morpholin-4-yl)phenyl]amino}pyrimidin-4-yl)benzonitrile]
50 to 500 | N#Cc1cc(-c2ccnc(Nc3ccc(N4CCOCC4)cc3)n2)ccc1NC(=O)N1CCCCC1 [Example 44, N-[2-cyano-4-(2-{[4-(morpholin-4-yl)phenyl]amino}pyrimidin-4-yl)phenyl]piperidine-1-carboxamide]
5 to 50 | CC(C)NC(=O)NCCOc1ccc(-c2ccnc(Nc3ccc(N4CCOCC4)cc3)n2)cc1C#N [Example 47, 1-{2-[2-cyano-4-(2-{[4-(morpholin-4-yl)phenyl]amino}pyrimidin-4-yl)phenoxy]ethyl}-3-propan-2-ylurea]
50 to 500 | N#Cc1cc(-c2ccnc(Nc3ccc(N4CCOCC4)cc3)n2)ccc1NC(=O)N1CCOCC1 [Example 52, N-[2-cyano-4-(2-{[4-(morpholin-4-yl)phenyl]amino}pyrimidin-4-yl)phenyl]morpholin-4-carboxamide]
50 to 500 | CC(=O)N1CC(Oc2ccc(-c3ccnc(Nc4ccc(N5CCOCC5)cc4)n3)cc2C#N)C1 [Example 53, 2-[(1-acetylazetidin-3-yl)oxy]-5-(2-{[4-(morpholin-4-yl)phenyl]amino}pyrimidin-4-yl)benzonitrile]
5 to 50 | N#Cc1cc(-c2ccnc(Nc3ccc(N4CCOCC4)cc3)n2)ccc1NC(=O)C1CCCC1 [Example 56, N-[2-cyano-4-(2-{[4-(morpholin-4-yl)phenyl]amino}pyrimidin-4-yl)phenyl] cyclopentane-carboxamide]
5 to 50 | N#Cc1cc(-c2ccnc(Nc3ccc(N4CCOCC4)cc3)n2)ccc1OC1CCN(C(=O)[C@H](O)C(F)(F)F)CC1 [Example 57, 5-(2-{[4-(Morpholin-4-yl)phenyl]amino}pyrimidin-4-yl)-2-({1-[(2S)-3,3,3-trifluoro-2-hydroxypropanoyl]piperidin-4-yl}oxy)benzonitrile]
5 to 50 | CN(C)CCOc1ccc(-c2ccnc(Nc3ccc(N4CCOCC4)cc3)n2)cc1C#N [Example 58, 2-[2-(Dimethylamino)ethoxy]-5-(2-{[4-(morpholin-4-yl)phenyl]amino}pyrimidin-4-yl)benzonitrile]
50 to 500 | N#Cc1cc(-c2ccnc(Nc3ccc(N4CCOCC4)cc3)n2)ccc1NC(=O)NC1CCCCC1 [Example 61, 1-[2-cyano-4-(2-{[4-(morpholin-4-yl)phenyl]amino}pyrimidin-4-yl)phenyl]-3-cyclohexylurea]
50 to 500 | CN(C)C1CCN(c2ccc(-c3ccnc(Nc4ccc(N5CCOCC5)cc4)n3)cc2C#N)C1 (centres unmarked) [Example 69]
50 to 500 | CC(C)(O)C(=O)N1CCC(Oc2ccc(-c3ccnc(Nc4ccc(N5CCOCC5)cc4)n3)cc2C#N)CC1 [Example 74, 2-{[1-(2-Hydroxy-2-methylpropanoyl)piperidin-4-yl]oxy}-5-(2-{[4-(morpholin-4-yl)phenyl]amino}pyrimidin-4-yl)benzonitrile]
50 to 500 | COC(=O)C(C)(C)COc1ccc(-c2ccnc(Nc3ccc(N4CCOCC4)cc3)n2)cc1C#N [Example 84, methyl 3-[2-cyano-4-(2-{[4-(morpholin-4-yl)phenyl]amino}pyrimidin-4-yl)phenoxy]-2,2-dimethylpropanoate]
50 to 500 | N#Cc1cc(-c2ccnc(Nc3ccc(N4CCOCC4)cc3)n2)ccc1OCCNC(=O)CCO [Example 95]
5 to 50 | CO[C@@H](C)C(=O)N1CCC(Oc2ccc(-c3ccnc(Nc4ccc(N5CCOCC5)cc4)n3)cc2C#N)CC1 [Example 99]
50 to 500 | N#Cc1cc(-c2ccnc(Nc3ccc(N4CCOCC4)cc3)n2)ccc1OC1CN(C=O)C1 [Example 101, 2-[(1-formylazetidin-3-yl)oxy]-5-(2-{[4-(morpholin-4-yl)phenyl]amino}pyrimidin-4-yl)benzonitrile]
